≈ marks a conversion by molar mass, not a printed value.
Legend:
M. aeruginosa = experiment: Algicidal activity (growth inhibition, microplate, absorbance 650 nm) against M. aeruginosa; assay type: cell-based; settings: 96-hour IC50, mean ± SD; for IC50: Microcystis aeruginosa, read-out: IC50 value M. aeruginosa
Protocol: (§1) According to the method established by Schrader et al.[42], algicidal activity of alkaloid (1) and its amide analogues (7–32), as well as their hydrochloric salts (7S–27S), was evaluated against three typical […] algae, S. obliqnus, M. aeruginosa, and C. Pyrenoidosa at different concentrations. After three algae species were inoculated, the variation of algae density over 7 days were recorded continuously. […] The wavelength at 650 nm was determined as ideal incident wavelength for the measurement of algae density. Three […] algae S. obliqnus, M. aeruginosa, and C. pyrenoidosa were offered by Freshwater algae culture collection of the institute of Hydrobiology (FACHB-collection). Each culture for three species was maintained separately in continuous, steady-state growth microplates, which were placed in a growth chamber held at 28 ± 1 °C and illuminated continuously under fluorescent lights at a photon flux density of […]. Absorbance values of each wells were measured by a Packard model Spectra Count microplate photometer.
(§2) Alkaloid (1) and its analogues (7–32), as well as their hydrochloric salts (7S–27S), were dissolved separately in DMSO to provide stock solution concentrations. Initially, each stock solution was aseptically pipetted into the bottom of separate wells (20 μL per well) in a 96-well microplate and the final test concentrations for each sample were 0, 0.78, 1.56, 3.12, 6.25, 12.5, and 25 μg/mL. Wells of control samples contained only unialgal culture. The solution of CuSO4 and Diuron at the same concentration were chose as the reference sample. Each experiment was performed at least three times. Through measuring the area values under the individual growth curves, the inhibitory rate (%) for the individual tested concentration was calculated according to the following equation (1):1 Ii=(Ac−Ai)/[…]×100% • Ii: inhibitory rate of biomass growth by toxicant concentration i (%) • Ac: average area under the growth curve by control sample • Ai: average area under the growth curve by test concentration i
(§3) Mean values of 96-hour IC50 were determined for each group of plates, and standard deviation were calculated and reported as the mean ± SD.
(§4) The IC50 values of all compounds against three freshwater algae species were calculated using SPSS v19.0, and the algicidal activities of alkaloid (1) and its amide analogues (7–32), as well as the corresponding hydrochloric salts (7S–27S) are listed in Table 1 and 2, respectively.
Currently, M. aeruginosa appears to be the most harmful algae existing in the freshwater bodies in the developing countries. To investigate growth inhibitory potential of this class of thiazole amides on M. aeruginosa, thiazole amide (10) and its hydrochloric acid salt (10S) were subject to further survey for the optimal inhibition time and concentration (Figs 3 and 4). […] The variation of growth inhibitory ratios of compounds (10) and (10S) against M. aeruginosa at the lowest complete inhibition concentration is illustrated in Fig. 4. As observed, for administration of thiazole amide (10), the growth inhibitory ratios after 96 and 120 hours increase gradually to 79% and 92%, respectively. Under the same experimental conditions, growth inhibitory ratios for the salt (10S) are 82% and 88%, respectively.

C. pyrenoidosa = experiment: Algicidal activity (growth inhibition, microplate, absorbance 650 nm) against C. pyrenoidosa; assay type: cell-based, Chlorella pyrenoidosa; settings: 96-hour IC50, mean ± SD; for IC50: Auxenochlorella pyrenoidosa, read-out: IC50 value C. pyrenoidosa
Protocol: as §1, §2, §3, §4

S. obliqnus = experiment: Algicidal activity (growth inhibition, microplate, absorbance 650 nm) against S. obliqnus; assay type: cell-based; settings: for IC50: 96 h, read-out: IC50 value S. obliqnus; for IC50 / IC50 value S. obliqnus: 96-hour IC50, mean ± SD
Protocol: as §1, §2, §3, §4

| Molecule | IC50 (M. aeruginosa) | IC50 (C. pyrenoidosa) | melting point | IC50 (S. obliqnus) | algicidal activity, times higher than CuSO4 and Diuron (S. obliqnus; S. obliqnus, from IC50 values) | IC50 value M. aeruginosa (M. aeruginosa) | IC50 value C. pyrenoidosa (C. pyrenoidosa) | IC50 value S. obliqnus (S. obliqnus) |
| --- | --- | --- | --- | --- | --- | --- | --- | --- |
| C[C@H](N)c1nc(C(=O)Nc2ccccc2)cs1 [compound 7] | 11.2 ± 1.12 µg/mL (≈ 45.1 µM) | 4.61 ± 0.45 µg/mL (≈ 18.6 µM) | 117 to 122 °C |  |  |  |  |  |
| C[C@H](N)c1nc(C(=O)Nc2ccc(F)cc2)cs1 [compound 8] | 4.51 ± 0.92 µg/mL (≈ 17 µM) | 3.57 ± 0.37 µg/mL (≈ 13.5 µM) |  | 2.74 ± 0.11 µg/mL (≈ 10.3 µM) |  |  |  |  |
| C[C@H](N)c1nc(C(=O)Nc2ccc(Cl)cc2)cs1 [compound 9] | 2.19 ± 0.09 µg/mL (≈ 7.77 µM) | 1.37 ± 0.12 µg/mL (≈ 4.86 µM) |  | 4.12 ± 0.13 µg/mL (≈ 14.6 µM) |  |  |  |  |
| Cc1ccc(NC(=O)c2csc([C@H](C)N)n2)cc1 [compound 11] | 6.16 ± 1.13 µg/mL (≈ 23.6 µM) | 10.4 ± 1.12 µg/mL (≈ 39.8 µM) |  | 2.66 ± 0.18 µg/mL (≈ 10.2 µM) |  |  |  |  |
| COc1ccc(NC(=O)c2csc([C@H](C)N)n2)cc1 [compound 12] | 2.35 ± 0.91 µg/mL (≈ 8.47 µM) | 17.4 ± 0.92 µg/mL (≈ 62.6 µM) | 126 to 127 °C |  | more than 10 times |  |  |  |
| C[C@H](N)c1nc(C(=O)Nc2ccc(C(F)(F)F)cc2)cs1 [compound 13] | 2.36 ± 0.12 µg/mL (≈ 7.48 µM) | 4.58 ± 0.23 µg/mL (≈ 14.5 µM) |  | 4.35 ± 0.17 µg/mL (≈ 13.8 µM) |  |  |  |  |
| C[C@H](N)c1nc(C(=O)Nc2cccc(Cl)c2)cs1 [compound 14] | 5.19 ± 0.19 µg/mL (≈ 18.4 µM) | 4.37 ± 0.14 µg/mL (≈ 15.5 µM) | 155 to 159 °C | 1.52 ± 0.12 µg/mL (≈ 5.39 µM) |  |  |  |  |
| CC(N)c1nc(C(=O)Nc2cccc(Br)c2)cs1 (centres unmarked) [compound 15] |  |  |  |  |  | 4.79 ± 0.15 µg/mL (≈ 14.7 µM) | 5.77 ± 0.11 µg/mL (≈ 17.7 µM) |  |
| C[C@H](N)c1nc(C(=O)Nc2cccc(C(F)(F)F)c2)cs1 [compound 17] | 12.2 ± 2.13 µg/mL (≈ 38.7 µM) | 10.4 ± 0.99 µg/mL (≈ 33.1 µM) |  | 9.21 ± 1.12 µg/mL (≈ 29.2 µM) |  |  |  |  |
| C[C@H](N)c1nc(C(=O)Nc2ccccc2F)cs1 [compound 18] | 2.55 ± 0.19 µg/mL (≈ 9.61 µM) | 3.41 ± 0.14 µg/mL (≈ 12.9 µM) |  | 3.95 ± 0.92 µg/mL (≈ 14.9 µM) |  |  |  |  |
| C[C@H](N)c1nc(C(=O)Nc2ccccc2Cl)cs1 [compound 19] | 12.2 ± 1.16 µg/mL (≈ 43.4 µM) | 8.16 ± 1.34 µg/mL (≈ 29 µM) |  |  |  |  |  |  |
| C[C@H](N)c1nc(C(=O)Nc2ccccc2Br)cs1 [compound 20] | 8.79 ± 1.23 µg/mL (≈ 26.9 µM) | 2.84 ± 0.93 µg/mL (≈ 8.71 µM) |  | 3.31 ± 0.13 µg/mL (≈ 10.1 µM) |  |  |  |  |
| Cc1ccccc1NC(=O)c1csc([C@H](C)N)n1 [compound 21] | 10.1 ± 1.71 µg/mL (≈ 38.5 µM) | 26.1 ± 3.25 µg/mL (≈ 99.8 µM) |  |  |  |  |  |  |
| C[C@H](N)c1nc(C(=O)Nc2ccc(OC(F)(F)F)cc2)cs1 [compound 23] | 7.2 ± 0.71 µg/mL (≈ 21.7 µM) | 3.8 ± 0.16 µg/mL (≈ 11.5 µM) |  | 5.93 ± 0.11 µg/mL (≈ 17.9 µM) |  |  |  |  |
| C[C@H](N)c1nc(C(=O)Nc2ccc(Cl)c(Cl)c2)cs1 [compound 24] | 9.81 ± 1.13 µg/mL (≈ 31 µM) | 5.11 ± 1.01 µg/mL (≈ 16.2 µM) |  | 4.31 ± 0.21 µg/mL (≈ 13.6 µM) |  |  |  |  |
| Cc1cc(NC(=O)c2csc([C@H](C)N)n2)ccc1F [compound 25] | 6.73 ± 1.21 µg/mL (≈ 24.1 µM) | 5.1 ± 0.13 µg/mL (≈ 18.3 µM) |  | 1.81 ± 0.07 µg/mL (≈ 6.48 µM) |  |  |  |  |
| CCOC(=O)c1ccc(NC(=O)c2csc([C@H](C)N)n2)cc1 [compound 26] | 3.29 ± 0.21 µg/mL (≈ 10.3 µM) | 4.16 ± 0.56 µg/mL (≈ 13 µM) |  | 29.5 ± 1.56 µg/mL (≈ 92.5 µM) |  |  |  |  |
| CC(N)c1nc(C(=O)Nc2ccccn2)cs1 (centres unmarked) [compound 28] |  |  |  |  |  | 3.09 ± 0.15 µg/mL (≈ 12.4 µM) | 14.76 ± 1.26 µg/mL (≈ 59.4 µM) | 3.97 ± 0.17 µg/mL (≈ 16 µM) |
| C[C@H](N)c1nc(C(=O)NC(C)(C)C)cs1 [compound 29] | 5.31 ± 0.45 µg/mL (≈ 23.4 µM) | 3.46 ± 0.67 µg/mL (≈ 15.2 µM) |  | 6.23 ± 0.98 µg/mL (≈ 27.4 µM) |  |  |  |  |
| C[C@H](N)c1nc(C(=O)NCCc2ccccc2)cs1 [compound 31] | 57.5 ± 6.26 µg/mL (≈ 209 µM) | 2.84 ± 0.56 µg/mL (≈ 10.3 µM) |  | 5.98 ± 0.49 µg/mL (≈ 21.7 µM) |  |  |  |  |
| N-(2-(1H-indol-3-yl)ethyl)-2-acetylthiazole-4-carboxamide [Alkaloid (1)] |  |  |  |  |  | 114.60 ± 3.35 µg/mL | 381.57 ± 5.16 µg/mL | 14.33 ± 1.15 µg/mL |
